{"source": "BindingDB's records for doi:10.1016/j.bmcl.2011.10.052", "about": "(Rhône-Poulenc Rorer, 2011)"}
{"target": "Dihydroorotate dehydrogenase (quinone), mitochondrial (Homo sapiens, UniProt Q02127)", "sequence (Q02127 whole entry)": "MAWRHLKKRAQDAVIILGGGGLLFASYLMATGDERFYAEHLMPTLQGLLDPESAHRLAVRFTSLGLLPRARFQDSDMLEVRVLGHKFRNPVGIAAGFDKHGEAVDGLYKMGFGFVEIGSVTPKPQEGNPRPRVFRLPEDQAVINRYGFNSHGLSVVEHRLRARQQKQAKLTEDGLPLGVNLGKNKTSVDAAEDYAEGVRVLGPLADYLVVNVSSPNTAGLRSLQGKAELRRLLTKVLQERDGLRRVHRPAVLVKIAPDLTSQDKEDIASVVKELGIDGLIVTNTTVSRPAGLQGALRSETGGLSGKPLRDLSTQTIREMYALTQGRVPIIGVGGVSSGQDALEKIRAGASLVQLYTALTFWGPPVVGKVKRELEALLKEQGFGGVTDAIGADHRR", "experiment": "Inhibition of human dihydroorotate dehydrogenase", "units": {"IC50": "nM"}}
{"smiles": "CCC(=O)C(C#N)C(=O)Nc1ccc(-c2ccc(F)nc2)c(C(=O)OC)c1", "note": "(configuration not stated)", "IC50": 150}
{"smiles": "CCC(=O)C(C#N)C(=O)Nc1ccc(-c2cccc(OC3CCC3)c2)c(C(=O)OC)c1", "note": "(configuration not stated)", "IC50": 31}
{"smiles": "CCC(=O)C(C#N)C(=O)Nc1ccc(-c2cccc(Cl)c2)c(C(=O)OC)c1", "note": "(configuration not stated)", "IC50": 31}
{"smiles": "CCC(=O)C(C#N)C(=O)Nc1ccc(-c2ccc3c(c2)OCCO3)c(C(=O)OC)c1", "note": "(configuration not stated)", "IC50": 66}
{"smiles": "CCC(=O)C(C#N)C(=O)Nc1ccc(OS(=O)(=O)C(F)(F)F)cc1", "note": "(configuration not stated)", "IC50": 150}
{"smiles": "CCC(=O)C(C#N)C(=O)Nc1ccc(-c2ccc(F)cc2F)c(C(=O)OC)c1", "note": "(configuration not stated)", "IC50": 31}
{"smiles": "CCC(=O)C(C#N)C(=O)Nc1ccc(-c2ccc(F)cc2OC)c(C(=O)OC)c1", "note": "(configuration not stated)", "IC50": 66}
